How the values were obtained:
[1] = target: CD11b/CD18 (Homo sapiens, UniProt P11215); assay: Flow cytometry with conformation reporter mAbs KIM127 and 24 on K562 WT cells; type: cell-based; parameters: K562 cells stably transfected with plasmid encoding wild-type integrin CD11b/CD18; expressed in transfected cells; settings: LA1 15 uM, Mn2+ 1 mM; vs basal
Procedure: Flow cytometric analyses of K562 WT cells were performed according to published protocols. Briefly, cells were suspended in the assay buffer (Tris-buffered saline (TBS) containing 1 mM of ions Ca2+ and/or Mg2+ and 0.1% BSA). Cells ([…]) were incubated with primary mAb (1:100 dilution of IB4 ascites or the isotype controls, 1:50 […] and 24 and the relevant isotype controls, where incubations were performed at 37 °C) for 30 minutes. Subsequently, the cells were washed three times with the assay buffer and incubated with goat anti-mouse-APC (1 µg/ml, Invitrogen) for 20 minutes at 4° C. Cells were washed twice with the assay buffer and analyzed using FACSCaliber flow cytometer (BD Biosciences, CA), counting at least 10,000 events. Data was analyzed using the CellQuest software (BD Biosciences). Data shown is from one of at least three independent experiments.
Ligand binding induces extension of the integrin heterodimer and large, global conformational changes leading to outside-in signaling. Binding of activating antibodies also induces global conformational changes in the integrin heterodimer and such large conformational changes mimic those induced upon ligand binding. […] Thus, mAb KIM127 is often used as a reporter for the extended conformation of P2 integrins. […]

[2] = tested on: MAPK signaling (pERK, pJNK) in K562 WT cells; assay: Western blotting of pERK and pJNK in K562 WT cells; type: cell-based, human; settings: absence of ligand fibrinogen
Procedure: K562 WT cells were incubated with LA1, LA2, LA15 (15 μM), or fibrinogen (200 μg) in serum-free medium for 1 hour at 37° C. Cell lysates were resolved on 4-12% NuPAGE Bis-Tris SDS-PAGE gels using MES running buffer and transferred to a polyvinylidene difluoride (PVDF) membrane (ThermoScientific) using established protocols. Membranes were incubated with a 1:1,000 dilution of the anti-phospho-protein antibodies (anti phospho-p44/42 MAPK (pERK1/2) antibody (Thr202/Tyr204, Cell Signaling) or anti-phospho-SAPK/JNK (pJNK) antibody (Thr183/Tyr185, Cell Signaling #81E11)), or with an antibody against either total ERK1/2 (p44/42 MARK (Erk1/2), Cell Signaling #137F5) or total JNK (SAPK/JNK, Cell Signaling #56G8) and developed according to the manufacturer's instructions (ThermoScientific). Proteins were quantified by densitometry using ImageJ software. […]
Second, an effect of integrin ligation, macro clustering and redistribution in the plasma membrane is the triggering of outside-in intracellular signaling in cells via various MAPKs. […] In FIGS. 6A-6B, immunoblot results from two independent experiments were quantified using ImageJ software and ratio of phosphorylated protein to total protein was determined. Histograms showing this quantitation for each set are also shown. […] In FIGS. 6C-6D, immunoblot results from two independent experiments were quantified and are also shown, as in 6A and 6B.

[3] = tested on: CD11b+ macrophages in injured arteries; assay: Flow cytometric quantitation of arterial macrophages in injured arteries; type: in vivo, rat; settings: 7 days after balloon injury; LA1 1 mg/kg/d; ED7 1 and 3.3 mg/kg/d
Procedure: Agonist treated and control balloon-injured Fisher 344 rats were sacrificed 7 days post surgery at the onset of inflammation. The injured and non-injured iliac arteries were microdissected and digested with Collagenase/Elastase mix (Worthington Biochemical, NY) in DMEM containing 2% FBS for 2 hours at 37° C. The resulting single cell suspension was washed with cold PBS containing 2% FBS and filtered through […] sieve. Cells were re-suspended cold PBS containing 2% FBS at a concentration of 10^6 cells per 100 μl and stained with biotinylated anti-rat CD11b antibody (clone WT.5, BD Biosciences) for 1 hour at 4° C. […] Cells were washed twice with the assay buffer and analyzed using FACS II Canto cytometer and the data were analyzed using FlowJo (Tree Star Inc.) software. […]
Next, to determine whether either type of agonist (chemical LA1 and biologic activating antibody) has a therapeutic advantage over the other, a head-to-head comparison was performed using this in vivo model. […] Next, the arteries were analyzed to quantify the number of infiltrated macrophages in the presence of agonists LA1 or ED7 and compared it to vehicle treated animals. The arteries were harvested from animals 7 days after balloon injury and single cell suspensions were analyzed by flow cytometry (using anti-rat CD11b antibody WT.5) to quantitate CD11b+ macrophages in each sample. […]

[4] = tested on: T cells from the draining lymph nodes; assay: IFN production by antigen-reactive T cells (MOG-peptide); type: cell-based, mice; settings: antigen dose-dependent
Procedure: Additionally, LA1 decreased IFN-[…] production by T-cells in an antigen dose-dependent fashion (MOG-peptide, data not shown) when antigen-reactive T cells from the draining lymph nodes of mice were assessed.

Structure (SMILES): O=C(O)c1ccc(-c2ccc(/C=C3\SC(=S)N(Cc4ccccc4)C3=O)o2)cc1 [LA1]
- binding of conformation reporter KIM127 [1]: very small increase
- binding of conformation reporter mAb 24 [1]: small increase
- phosphorylated ERK (pERK) and phosphorylated JNK (pJNK) [2]: did not induce any significant pERK or pJNK
- CD11b+ macrophages in injured arteries vs vehicle [3]: significantly less CD11b/CD18 macrophages
- IFN-[…] production by T-cells [4]: decreased
